Assay results from the supplement of paper PMC10307832.

Tests used:
Test in all cases: relative viability (nuclei count vs DMSO), 5 days (fraction); higher = more cells survive
Sulindac + Bortezomib = compound: CC1=C(CC(=O)O)c2cc(F)ccc2/C1=C\c1ccc([S+](C)[O-])cc1 [Sulindac] + CC(C)C[C@H](NC(=O)[C@H](Cc1ccccc1)NC(=O)c1cnccn1)B(O)O [Bortezomib] (partner 0.002 µM)
Summary of the method: (§1)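 Relative viability divides the nuclei count in treated wells by that in vehicle wells. Lung cancer cell lines were seeded in 1536-well plates, dosed by pin tool the next day, and fixed and stained after 5 days in one step with final 0.05% Triton X-100, 1% formaldehyde and 1 ug/ml Hoechst. Dosing was a single drug or a fixed anchor-drug dose plus five library-drug doses (not always all listed) in √10 steps, and values are medians of duplicate plates imaged at 4×.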

Sulindac + Linsitinib = compound: CC1=C(CC(=O)O)c2cc(F)ccc2/C1=C\c1ccc([S+](C)[O-])cc1 [Sulindac] + C[C@]1(O)C[C@@H](c2nc(-c3ccc4ccc(-c5ccccc5)nc4c3)c3c(N)nccn32)C1 [Linsitinib] (partner 1 µM)
Summary of the method: as §1

Sulindac + Phenformin = compound: CC1=C(CC(=O)O)c2cc(F)ccc2/C1=C\c1ccc([S+](C)[O-])cc1 [Sulindac] + N=C(N)NC(=N)NCCc1ccccc1 [Phenformin] (partner 250 µM)
Summary of the method: as §1

[1] = compound: O=c1[nH]cc(F)c(=O)[nH]1 [5-Fluorouracil] + Cc1nc(Nc2ncc(C(=O)Nc3c(C)cccc3Cl)s2)cc(N2CCN(CCO)CC2)n1 [Dasatinib] (partner 0.075 µM)
Summary of the method: as §1

Q: NCI-H520 was tested. Which relative viability (Sulindac + Bortezomib; first compound 0.08 µM) did it give?
A: 0.585

Q: What about the relative viability (Sulindac + Bortezomib; first compound 0.253 µM) of the same cell line?
A: 0.599

Q: What about the relative viability (Sulindac + Bortezomib; first compound 0.8 µM) of the same cell line?
A: 0.51

Q: What about the relative viability (Sulindac + Bortezomib; first compound 2.53 µM) of the same cell line?
A: 0.399

Q: What about the relative viability (Sulindac + Bortezomib; first compound 8 µM) of the same cell line?
A: 0.764

Q: What about the relative viability (Sulindac + Linsitinib; first compound 0.08 µM) of the same cell line?
A: 1.24

Q: And the relative viability (Sulindac + Linsitinib; first compound 0.253 µM)?
A: 1.1

Q: And the relative viability (Sulindac + Linsitinib; first compound 0.8 µM)?
A: 0.739

Q: And the relative viability (Sulindac + Linsitinib; first compound 2.53 µM)?
A: 0.997

Q: What about the relative viability (Sulindac + Linsitinib; first compound 8 µM) of the same cell line?
A: 1.33

Q: What about the relative viability (Sulindac + Phenformin; first compound 0.08 µM) of the same cell line?
A: 0.738

Q: What about the relative viability (Sulindac + Phenformin; first compound 0.253 µM) of the same cell line?
A: 0.949

Q: What about the relative viability (Sulindac + Phenformin; first compound 0.8 µM) of the same cell line?
A: 0.412

Q: And the relative viability (Sulindac + Phenformin; first compound 2.53 µM)?
A: 0.347

Q: What about the relative viability (Sulindac + Phenformin; first compound 8 µM) of the same cell line?
A: 0.67

Q: What about the relative viability ([1]; first compound 0.02 µM) of the same cell line?
A: 0.152

Q: What about the relative viability ([1]; first compound 0.2 µM) of the same cell line?
A: 0.234

Q: And the relative viability ([1]; first compound 0.6325 µM)?
A: 0.174

Q: What about the relative viability ([1]; first compound 2 µM) of the same cell line?
A: 0.142
